Common to all, as to assay: NCI tumour cell line growth inhibition, 48 h
In assay [1] the test system is NCI-H522 lung.
Assay [2] concerns A549 NSCLC.
The test system of assay [3] is EKVX NSCLC.
Assay [4] deals with COLO 205 colon.
Assay [5] deals with DU-145 prostate.
Assay [6] relates to MCF7 breast.
For assay [7], the system named is MOLT-4 leukemia.
For assay [8], the system named is UO-31 renal.

Structures are written as SMILES.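 Test compounds were applied to cells in 96-well plates for 48 hours at 5 doses. GI50 marks 50% less growth. TGI: total growth inhibition.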

Take `COc1ccc(C2C(C#N)=C(N)OC3=C2COc2ccc(F)cc23)cc1OC` (centres undefined): the GI50 was 54.3 µM in assay [1]; 27.2 µM in assay [2]; 17.8 µM in assay [3]; 19.1 µM in assay [4]; 28.2 µM in assay [5]; 32.9 µM in assay [6]. The results for the GI50 in assay [7] and in assay [8] were 49.5 µM and 43.9 µM, respectively. The TGI in assay [1] is > 100 µM; in assay [2] it was 63.8 µM; in assay [3] it was > 100 µM; in assay [4] it was > 100 µM; in assay [5], > 100 µM; in assay [6], > 100 µM. Besides, the TGI in assay [7] and in assay [8] was > 100 µM each time.
In the case of `O=C(Nc1ccc(Cl)cc1F)c1cc(Br)ccc1O`, the GI50 in assay [1] is 0.481 µM; in assay [2] it was 1.42 µM; in assay [3], 1.46 µM; in assay [4], 7.65 µM; in assay [5], 1.89 µM; in assay [6] it was 1.26 µM. Moreover, the GI50 was 2.34 µM in assay [7] and 0.461 µM in assay [8]. Moreover, the TGI in assay [1] was 9.23 µM; in assay [2] it was > 100 µM; in assay [3], > 26.1 µM; in assay [4], 21.5 µM; in assay [5], > 100 µM; in assay [6] it was > 100 µM. Also, the TGI in assay [7] amounted to 7.87 µM; in assay [8] it was 3.65 µM.
Regarding `Cc1c[n+](Cc2ccc3ccccc3c2)cn1Cc1ccc2ccccc2c1`, the GI50 is 1.41 µM in assay [1]; 5.05 µM in assay [2]; 2.15 µM in assay [3]; 1.12 µM in assay [4]; 2.55 µM in assay [5]; 1.67 µM in assay [6]. For the same molecule, the GI50 in assay [7] was 1.7 µM; in assay [8], 5.47 µM. Moreover, the TGI in assay [1] worked out at 3.05 µM; in assay [2] it was 18.7 µM; in assay [3], 9.71 µM; in assay [4], 2.62 µM; in assay [5] it was 9.61 µM; in assay [6], 3.5 µM. Moreover, the TGI in assay [7] is 4.06 µM; in assay [8], 20.4 µM.
Take `CCOC(=O)N1CCN(C(=O)c2ccc(C(F)(F)F)nc2Nc2cc(Cl)ccc2C)CC1`: the GI50 in assay [1] is 4.43 µM; in assay [2] it was 14.8 µM; in assay [3], 23.2 µM; in assay [4], 18.9 µM; in assay [5] it was 48.2 µM; in assay [6], 14.7 µM. The GI50 in assay [7] was 6.63 µM; in assay [8], 7.82 µM. Moreover, the TGI in assay [1] was 27.4 µM; in assay [2], > 100 µM; in assay [3], > 100 µM; in assay [4], 51.6 µM; in assay [5] it was > 100 µM; in assay [6], 43 µM. Besides, the TGI in assay [7] was 64.8 µM; in assay [8], > 100 µM.
As for `O=C(O)Cc1c(O)ccc2ccccc12`, the TGI in assay [1], in assay [2], in assay [3], in assay [4], in assay [5] and in assay [6] was > 100 µM in each case. Moreover, the TGI in assay [7] is > 100 µM.
Consider `Fc1ccc(Nc2cc(-n3nnc4ccccc43)nc3ccccc23)cc1`, for which the GI50 in assay [1] is 66.3 µM; in assay [2], 64.4 µM; in assay [3], 31.8 µM; in assay [4], 5.74 µM; in assay [5], > 56.2 µM; in assay [6] it was 29.8 µM. In addition, the GI50 in assay [7] was > 100 µM; in assay [8], > 55.9 µM. Moreover, the TGI in assay [1] is > 100 µM; in assay [2], > 100 µM; in assay [3], > 82.6 µM; in assay [4], > 100 µM; in assay [5], > 100 µM; in assay [6], > 84.4 µM. The TGI in assay [7] and in assay [8] was > 100 µM in each case.
With `COC(=O)[C@@H](NC(=O)[C@@H](OC)[C@@H]1Cc2cc3cc(OC4CC(OC5CC(O)C(O)C(C)O5)C(O)C(C)O4)c(C)c(O)c3c(O)c2C(=O)[C@H]1OC1CC(OC2CC(OC3CC(C)(O)C(O)C(C)O3)C(O)C(C)O2)C(O)C(C)O1)C(C)C` (some centres undefined), the GI50 was 0.112 µM in assay [1]; 0.141 µM in assay [2]; 0.162 µM in assay [3]; 0.137 µM in assay [4]; 0.158 µM in assay [5]; 0.0538 µM in assay [6]. Besides, the values for the GI50 in assay [7] and in assay [8] were 0.136 µM and 0.129 µM, respectively. Moreover, the TGI in assay [1] was 2.02 µM; in assay [2] it was > 32.5 µM; in assay [3], > 32.5 µM; in assay [4] it was > 32.5 µM; in assay [5], > 32.5 µM; in assay [6], > 32.5 µM. In addition, the TGI was 5.24 µM in assay [7] and 4.4 µM in assay [8].
On to `O=C(O)c1cccc(OCCO)c1`, for which the TGI in assay [1], in assay [2], in assay [3], in assay [4], in assay [5] and in assay [6] was > 100 µM each time. The TGI in assay [7] and in assay [8] was > 100 µM in each case.
As for `CC(=O)O[C@@H]1C[C@]2(C(C)C)O[C@@]1(C)[C@@H]1CCC(C)=C1[C@@H]2OC(=O)/C=C/c1ccccc1`, the GI50 is 20.7 µM in assay [1]; 47 µM in assay [2]; 20 µM in assay [3]; 31.4 µM in assay [4]; 70.1 µM in assay [5]; 19.5 µM in assay [6]. Moreover, the GI50 in assay [7] was 26.9 µM; in assay [8], 20 µM. In addition, the TGI in assay [1], in assay [2], in assay [3], in assay [4], in assay [5] and in assay [6] was > 100 µM throughout. The TGI in assay [7] and in assay [8] was > 100 µM throughout.
For `C#CC(=O)Nc1cccc(Nc2nc3c(c(NCc4ccccc4)n2)CCCC3)c1`, the GI50 was < 0.01 µM in assay [1]; 0.34 µM in assay [3]; 0.401 µM in assay [4]; 0.446 µM in assay [5]; 0.296 µM in assay [6]; < 0.01 µM in assay [8]. The TGI in assay [1] is < 0.01 µM; in assay [3], 1.99 µM; in assay [4] it was 1.14 µM; in assay [5] it was 1.95 µM; in assay [6] it was 1.81 µM; in assay [8], < 0.01 µM.
